Drawing on patent US8299048B2, “Hexahydrocyclopentyl[f]indazole sulfonamides and derivatives thereof as selective glucocorticoid receptor modulators” (Merck Sharp & Dohme Corp., priority 2008, dated 2012), this text covers Emax and EC50 for 16 compounds.

The assay has as its target T1, human GR (Homo sapiens, UniProt P04150).
T1 sequence (P04150 1-777): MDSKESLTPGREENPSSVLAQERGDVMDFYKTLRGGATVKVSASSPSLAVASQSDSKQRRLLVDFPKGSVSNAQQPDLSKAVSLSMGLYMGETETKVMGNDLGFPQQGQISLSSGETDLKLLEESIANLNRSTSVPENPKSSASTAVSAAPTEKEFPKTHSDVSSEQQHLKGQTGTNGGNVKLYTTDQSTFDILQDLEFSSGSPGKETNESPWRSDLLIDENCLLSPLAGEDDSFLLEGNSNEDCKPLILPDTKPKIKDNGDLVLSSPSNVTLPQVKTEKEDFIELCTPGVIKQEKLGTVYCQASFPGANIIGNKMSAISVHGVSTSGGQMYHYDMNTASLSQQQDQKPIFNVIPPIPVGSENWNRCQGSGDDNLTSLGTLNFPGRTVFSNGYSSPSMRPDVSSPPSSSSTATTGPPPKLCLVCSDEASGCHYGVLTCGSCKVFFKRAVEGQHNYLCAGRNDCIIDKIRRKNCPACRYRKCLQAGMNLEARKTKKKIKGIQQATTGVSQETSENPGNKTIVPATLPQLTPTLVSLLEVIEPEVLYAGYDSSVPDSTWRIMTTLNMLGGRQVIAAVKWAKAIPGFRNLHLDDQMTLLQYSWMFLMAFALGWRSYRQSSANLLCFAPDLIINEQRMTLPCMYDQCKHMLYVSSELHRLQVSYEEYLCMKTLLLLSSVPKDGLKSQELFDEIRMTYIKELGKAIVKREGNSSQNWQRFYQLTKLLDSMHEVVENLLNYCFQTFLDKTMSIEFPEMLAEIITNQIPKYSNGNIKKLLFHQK
Put plainly: Trans-Activation Modulation of Glucocorticoid Receptor (GRAMMER), MMTV-LUC reporter, agonist mode. Format: cell-based. Also on record: endogenous in cells. The settings on record: for Emax: A549, A549 cells, maximum activity, read-out: Transactivation A549 Cells GRAMMER Emax; for EC50: A549 cells, inflection point, read-out: Transactivation A549 Cells GRAMMER IP. The method in brief: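 Readout is luciferase from a modified MMTV LTR promoter after 24 h compound exposure alongside 10 nM dexamethasone (100% activity reference), DMSO ≤1%.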

In the case of `C[C@]12Cc3cnn(-c4ccc(F)cc4)c3C=C1CC[C@@H]2CN(CC(OS(=O)(=O)CC(F)(F)F)C(F)F)S(=O)(=O)CC(F)(F)F` (stereo partly drawn) [Example 134, 2,2-difluoro-1-({{[(4αR,5S)-1-(4-fluorophenyl)-4α-methyl-1,4,4α,5,6,7-hexahydrocyclopenta[f]indazol-5-yl]methyl}[(2,2,2-trifluoroethyl)sulfonyl]amino}methyl)ethyl 2,2,2-trifluoroethanesulfonate], the maximum response (Emax) came to 89.2% and the EC50 was 0.216 µM.

Take `C[C@]12Cc3cnn(-c4ccc(F)cc4)c3C=C1CC[C@@H]2CN(CC1(O)CC1)S(=O)(=O)CC(F)(F)F` [Example 135, 2,2,2-trifluoro-N-{[(4αR,5S)-1-(4-fluorophenyl)-4α-methyl-1,4,4α,5,6,7-hexahydrocyclopenta[f]indazol-5-yl]methyl}-N-[(1-hydroxycyclopropyl)methyl]ethanesulfonamide]: the Emax came to 68.8% and the EC50 was 0.127 µM.

Regarding `C[C@]12Cc3cnn(-c4ccc(F)cc4)c3C=C1CC[C@@H]2CN(CC1(OS(=O)(=O)CC(F)(F)F)CC1)S(=O)(=O)CC(F)(F)F` [Example 136, 1-({{[(4αR,5S)-1-(4-fluorophenyl)-4α-methyl-1,4,4α,5,6,7-hexahydrocyclopenta[f]indazol-5-yl]methyl}[(2,2,2-trifluoroethyl)sulfonyl]amino}methyl)cyclopropyl 2,2,2-trifluoroethanesulfonate], the maximal response (Emax) was 58.8% and the EC50 stood at 0.279 µM.

`C[C@]12Cc3cnn(-c4ccccc4)c3C=C1CC[C@@H]2CN(CCc1ccccc1F)S(=O)(=O)CC(F)(F)F` [Example 137, 2,2,2-trifluoro-N-[2-(2-fluorophenyl)ethyl]-N-{[(4αR,5S)-4α-methyl-1-phenyl-1,4,4α,5,6,7-hexahydrocyclopenta[f]indazol-5-yl]methyl}ethanesulfonamide]: the maximal effect (Emax) worked out at 73.6% and the EC50 came to 0.143 µM.

Regarding `C[C@]12Cc3cnn(-c4ccccc4)c3C=C1CC[C@@H]2CN(CCc1ccccn1)S(=O)(=O)CC(F)(F)F` [Example 138, 2,2,2-trifluoro-N-{[(4αR,5S)-4α-methyl-1-phenyl-1,4,4α,5,6,7-hexahydrocyclopenta[f]indazol-5-yl]methyl}-N-(2-pyridin-2-ylethyl)ethanesulfonamide], the maximal response (Emax) is 78.1% and the EC50 amounted to 0.203 µM.

With `COc1ccccc1CCN(C[C@H]1CCC2=Cc3c(cnn3-c3ccccc3)C[C@@]21C)S(=O)(=O)CC(F)(F)F` [Example 139, 2,2,2-trifluoro-N-[2-(2-methoxyphenyl)ethyl]-N-{[(4αR,5S)-4α-methyl-1-phenyl-1,4,4α,5,6,7-hexahydrocyclopenta[f]indazol-5-yl]methyl}ethanesulfonamide], the maximal effect (Emax) was 70.7% and the EC50 came to 0.262 µM.

Take `C[C@]12Cc3cnn(-c4ccccc4)c3C=C1CC[C@@H]2CN(CCc1ccccn1)S(=O)(=O)Cc1cccnc1` [Example 140, N-{[(4αR,5S)-4α-methyl-1-phenyl-1,4,4α,5,6,7-hexahydrocyclopenta[f]indazol-5-yl]methyl}-1-pyridin-3-yl-N-(2-pyridin-2-ylethyl)methanesulfonamide]: the Emax is 21.3% and the EC50 was 0.704 µM.

With `C[C@]12Cc3cnn(-c4ccccc4)c3C=C1CC[C@@H]2CN(CCc1ccccc1O)S(=O)(=O)Cc1cccnc1` [Example 141, N-[2-(2-hydroxyphenyl)ethyl]-N-{[(4αR,5S)-4α-methyl-1-phenyl-1,4,4α,5,6,7-hexahydrocyclopenta[f]indazol-5-yl]methyl}-1-pyridin-3-ylmethanesulfonamide], the maximal response (Emax) was determined as 22.6% and the EC50 was determined as 0.441 µM.

Turning to `C[C@]12Cc3cnn(-c4ccc(F)cc4)c3C=C1CC[C@@H]2CN(CC(O)c1ccccn1)S(=O)(=O)CC(F)(F)F` (stereo partly drawn) [Example 142, 2,2,2-trifluoro-N-{[(4αR,5S)-1-(4-fluorophenyl)-4α-methyl-1,4,4α,5,6,7-hexahydrocyclopenta[f]indazol-5-yl]methyl}-N-(2-hydroxy-2-pyridin-2-ylethyl)ethanesulfonamide], the maximal response (Emax) was 78.1% and the EC50 worked out at 0.123 µM.

On to `C[C@]12Cc3cnn(-c4ccc(F)cc4)c3C=C1CC[C@@H]2CN(CC(O)c1cccnc1)S(=O)(=O)CC(F)(F)F` (stereo partly drawn) [Example 143, 2,2,2-trifluoro-N-{[(4αR,5S)-1-(4-fluorophenyl)-4α-methyl-1,4,4α,5,6,7-hexahydrocyclopenta[f]indazol-5-yl]methyl}-N-(2-hydroxy-2-pyridin-3-ylethyl)ethanesulfonamide], for which the Emax came to 83.5% and the EC50 is 0.252 µM.

With `C[C@]12Cc3cnn(-c4ccc(F)cc4)c3C=C1CC[C@@H]2CN(CC(O)c1ccncc1)S(=O)(=O)CC(F)(F)F` (stereo partly drawn) [Example 144, 2,2,2-trifluoro-N-{[(4αR,5S)-1-(4-fluorophenyl)-4α-methyl-1,4,4α,5,6,7-hexahydrocyclopenta[f]indazol-5-yl]methyl}-N-(2-hydroxy-2-pyridin-4-ylethyl)ethanesulfonamide], the Emax was found to be 73.6% and the EC50 is 0.397 µM.

As to `C[C@]12Cc3cnn(-c4ccc(F)cc4)c3C=C1CC[C@@H]2CN(CC(OS(=O)(=O)CC(F)(F)F)c1ccccn1)S(=O)(=O)CC(F)(F)F` (stereo partly drawn) [Example 145, 2-{{[(4αR,5S)-1-(4-fluorophenyl)-4α-methyl-1,4,4α,5,6,7-hexahydrocyclopenta[f]indazol-5-yl]methyl}[(2,2,2-trifluoroethyl)sulfonyl]amino}-1-pyridin-2-ylethyl 2,2,2-trifluoroethanesulfonate], the Emax was found to be 60.2% and the EC50 amounted to 0.204 µM.

In the case of `CC(CN(C[C@H]1CCC2=Cc3c(cnn3-c3ccc(F)cc3)C[C@@]21C)S(=O)(=O)CC(F)(F)F)c1cccnc1` (stereo partly drawn) [Example 146, 2,2,2-trifluoro-N-{[(4αR,5S)-1-(4-fluorophenyl)-4α-methyl-1,4,4α,5,6,7-hexahydrocyclopenta[f]indazol-5-yl]methyl}-N-(2-pyridin-3-ylpropyl)ethanesulfonamide], the maximal effect (Emax) worked out at 91.5% and the EC50 stood at 0.263 µM.

With `C[C@]12Cc3cnn(-c4ccc(F)cc4)c3C=C1CC[C@@H]2CN(CCC(N)C(F)(F)F)S(=O)(=O)CC(F)(F)F` (stereo partly drawn) [Example 147, N-(3-amino-4,4,4-trifluorobutyl)-2,2,2-trifluoro-N-{[(4aR,5S)-1-(4-fluorophenyl)-4α-methyl-1,4,4α,5,6,7-hexahydrocyclopenta[f]indazol-5-yl]methyl}ethanesulfonamide], the Emax amounted to 78.1% and the EC50 stood at 0.475 µM.

As to `CCCS(=O)(=O)N(CC(O)C(F)(F)F)C[C@H]1CCC2=Cc3c(cnn3-c3ccc(F)cc3)C[C@@]21C` (stereo partly drawn) [Example 148, N-{[(4αR,5S)-1-(4-fluorophenyl)-4α-methyl-1,4,4α,5,6,7-hexahydrocyclopenta[f]indazol-5-yl]methyl}-N-(3,3,3-trifluoro-2-hydroxypropyl)propane-1-sulfonamide], the maximal response (Emax) was 62.6% and the EC50 was 0.403 µM.

On to `C[C@]12Cc3cnn(-c4ccc(F)cc4)c3C=C1CC[C@@H]2CN(CC(O)C(F)(F)F)S(=O)(=O)Cc1cccnc1` (stereo partly drawn) [Example 149, N-{[(4αR,5S)-1-(4-fluorophenyl)-4α-methyl-1,4,4α,5,6,7-hexahydrocyclopenta[f]indazol-5-yl]methyl}-1-pyridin-3-yl-N-(3,3,3-trifluoro-2-hydroxypropyl)methanesulfonamide], for which the Emax amounted to 32.4% and the EC50 turned out to be 0.351 µM.
